Reference: patent US20250026721A1, “COMPOUNDS AND METHODS FOR MODULATING RAS-PI3K” (Vividion Therapeutics, Inc., priority 2023, published 2025)

Legend:
PIK3CA = molecular target: T1, PIK3CA (Homo sapiens, UniProt P42336); test: In vitro ELISA target engagement assay for PIK3CA in Jurkat cellular lysate (competition with PIK3CA Biotin Probe); type: binding; details: 1 hour at rt, then 500 nM PIK3CA Biotin Probe, read-out: Elisa Target Engagement Assay (TE50)
T1 construct: endogenous in cells; host or cells: Jurkat cell lysate
How it was run: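 Jurkat lysate from sonicated frozen cells was preincubated 1 h at rt with serially diluted compound up to 200 μM, then labelled 1 h at rt with PIK3CA biotin probe at 500 nM final. Probe-bound PIK3CA was captured on antibody-coated plates and detected with Neutravidin-HRP luminescence; TE50 derived from the dose response.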

PIK3CA_C242 = molecular target: T2, PIK3CA_C242 (Homo sapiens, UniProt P42336); test: Proteomic TE50 (IA-DTB / TMT mass spectrometry) in Jurkat cell lysate; type: binding; details: 1 hour at rt, 7-point dose response
T2 construct: endogenous in cells; host or cells: Jurkat cell lysate
How it was run: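 Jurkat lysate (500 μg) treated with compound (7-point, 1:5 dilutions) for 1 h at rt, then labelled with 200 μM IA-DTB for 1 h. After digestion and streptavidin enrichment, the C242 peptide was quantified by targeted MS3 TMT. TE50 was derived from reporter-ion S/N dose-response curves.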

T1 sequence (P42336 whole entry): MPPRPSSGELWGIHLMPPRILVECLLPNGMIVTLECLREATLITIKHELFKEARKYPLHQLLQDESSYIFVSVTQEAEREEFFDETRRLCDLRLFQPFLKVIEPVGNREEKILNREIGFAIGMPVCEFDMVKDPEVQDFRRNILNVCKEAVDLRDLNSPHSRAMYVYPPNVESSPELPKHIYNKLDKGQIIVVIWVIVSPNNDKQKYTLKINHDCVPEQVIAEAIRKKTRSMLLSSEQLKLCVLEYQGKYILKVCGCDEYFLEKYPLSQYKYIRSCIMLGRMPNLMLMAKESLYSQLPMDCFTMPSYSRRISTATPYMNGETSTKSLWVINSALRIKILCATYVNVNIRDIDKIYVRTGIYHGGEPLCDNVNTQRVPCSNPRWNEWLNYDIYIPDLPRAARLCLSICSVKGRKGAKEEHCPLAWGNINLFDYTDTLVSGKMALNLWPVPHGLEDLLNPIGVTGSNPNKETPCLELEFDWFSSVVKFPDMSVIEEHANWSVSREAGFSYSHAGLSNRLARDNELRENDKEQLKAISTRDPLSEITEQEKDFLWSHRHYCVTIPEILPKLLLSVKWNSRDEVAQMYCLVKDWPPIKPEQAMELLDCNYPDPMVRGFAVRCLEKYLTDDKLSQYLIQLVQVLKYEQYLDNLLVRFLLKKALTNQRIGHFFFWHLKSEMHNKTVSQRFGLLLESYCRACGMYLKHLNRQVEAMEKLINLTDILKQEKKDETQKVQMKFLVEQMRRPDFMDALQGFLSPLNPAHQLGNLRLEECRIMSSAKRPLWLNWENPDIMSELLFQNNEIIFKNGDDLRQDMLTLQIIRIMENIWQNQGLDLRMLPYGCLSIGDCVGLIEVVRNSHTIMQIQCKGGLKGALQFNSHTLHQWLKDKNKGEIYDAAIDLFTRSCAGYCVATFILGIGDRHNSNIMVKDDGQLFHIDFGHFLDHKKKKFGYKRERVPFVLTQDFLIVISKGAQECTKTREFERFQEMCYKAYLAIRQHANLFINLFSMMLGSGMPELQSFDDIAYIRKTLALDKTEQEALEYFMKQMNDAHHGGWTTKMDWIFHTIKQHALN
T1 sequence (P27986 whole entry partner): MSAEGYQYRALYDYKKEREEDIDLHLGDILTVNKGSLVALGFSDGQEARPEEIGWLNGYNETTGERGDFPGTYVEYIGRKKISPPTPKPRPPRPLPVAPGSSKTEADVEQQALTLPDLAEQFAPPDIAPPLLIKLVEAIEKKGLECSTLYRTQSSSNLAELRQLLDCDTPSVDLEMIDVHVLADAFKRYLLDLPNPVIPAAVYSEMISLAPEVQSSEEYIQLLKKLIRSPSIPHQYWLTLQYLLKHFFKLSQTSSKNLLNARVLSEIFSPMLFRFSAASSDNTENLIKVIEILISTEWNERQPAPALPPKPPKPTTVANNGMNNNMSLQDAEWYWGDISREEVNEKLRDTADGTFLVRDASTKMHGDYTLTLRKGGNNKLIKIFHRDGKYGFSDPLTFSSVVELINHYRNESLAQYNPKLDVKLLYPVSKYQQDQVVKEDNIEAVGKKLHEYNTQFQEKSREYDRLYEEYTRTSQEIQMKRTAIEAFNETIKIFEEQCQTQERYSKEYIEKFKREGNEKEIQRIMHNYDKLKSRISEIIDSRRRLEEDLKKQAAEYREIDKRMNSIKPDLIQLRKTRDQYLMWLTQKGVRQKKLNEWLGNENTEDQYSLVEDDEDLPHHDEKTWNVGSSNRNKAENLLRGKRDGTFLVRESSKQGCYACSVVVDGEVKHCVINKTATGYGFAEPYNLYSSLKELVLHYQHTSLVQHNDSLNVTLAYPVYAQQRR
T2 sequence (P42336 whole entry): as the sequence (P42336 whole entry) above
T2 sequence (P27986 whole entry partner): as the sequence (P27986 whole entry partner) above

Compound	IC50 (PIK3CA) [nM]	IC50 (PIK3CA_C242) [nM]
COc1cc(-c2ccccc2Cl)c(S(=O)(=O)N2CCC(F)(C(=O)N[C@H](C)/C=C\S(C)(=O)=O)CC2)cn1 [Compound 186, 1-[[4-(2-chlorophenyl)-6-methoxy-3-pyridyl]sulfonyl]-4-fluoro-N—[(Z,1R)-1-methyl-3-methylsulfonyl-allyl]piperidine-4-carboxamide]	493	226
COc1cc(-c2ccccc2C)c(S(=O)(=O)N2CCC(F)(C(=O)N[C@@H](C)/C=C\S(C)(=O)=O)CC2)cn1 [Compound 190, (S,Z)-4-fluoro-1-((6-methoxy-4-(o-tolyl)pyridin-3-yl)sulfonyl)-N-(4-(methylsulfonyl)but-3-en-2-yl)piperidine-4-carboxamide]	110	61
COc1cc(-c2ccccc2)c(S(=O)(=O)N2CCC(F)(C(=O)N[C@@H](C)/C=C\S(C)(=O)=O)CC2)cn1 [Compound 192, (S,Z)-4-fluoro-1-((6-methoxy-4-phenylpyridin-3-yl)sulfonyl)-N-(4-(methylsulfonyl)but-3-en-2-yl)piperidine-4-carboxamide]	280	240
COc1cc(-c2ccccc2C)c(S(=O)(=O)N2CCC(F)(C(=O)N[C@H](C)/C=C\S(C)(=O)=O)CC2)cn1 [Compound 193, (R,Z)-4-fluoro-1-((6-methoxy-4-(o-tolyl)pyridin-3-yl)sulfonyl)-N-(4-(methylsulfonyl)but-3-en-2-yl)piperidine-4-carboxamide]	290	284
COc1cccc(-c2cc(Cl)ccc2S(=O)(=O)N2CCC(C)(C(=O)N[C@@H](C)/C=C\S(C)(=O)=O)CC2)c1 [Compound 201, (S,Z)-1-((5-chloro-3′-methoxy-[1,1′-biphenyl]-2-yl)sulfonyl)-4-methyl-N-(4-(methylsulfonyl)but-3-en-2-yl)piperidine-4-carboxamide]	350	310
COc1cc(-c2ccccc2Cl)c(S(=O)(=O)N2CCC(F)(C(=O)N[C@H](C)/C=C\S(C)(=O)=O)CC2)cc1OC [Compound 202, (R,Z)-1-((2′-chloro-4,5-dimethoxy-[1,1′-biphenyl]-2-yl)sulfonyl)-4-fluoro-N-(4-(methylsulfonyl)but-3-en-2-yl)piperidine-4-carboxamide]	180	180
COc1cccc(-c2cc(Cl)ccc2S(=O)(=O)N2CCC(C)(C(=O)N[C@H](C)/C=C\S(C)(=O)=O)CC2)c1 [Compound 203, (R,Z)-1-((5-chloro-3′-methoxy-[1,1′-biphenyl]-2-yl)sulfonyl)-4-methyl-N-(4-(methylsulfonyl)but-3-en-2-yl)piperidine-4-carboxamide]	980	1110
C[C@H](/C=C\S(C)(=O)=O)NC(=O)C1(F)CCN(S(=O)(=O)c2ccc(Br)cc2-c2ncccc2Cl)CC1 [Compound 204, (R,Z)-1-((4-bromo-2-(3-chloropyridin-2-yl)phenyl)sulfonyl)-4-fluoro-N-(4-(methylsulfonyl)but-3-en-2-yl)piperidine-4-carboxamide]	340	730
C[C@H](/C=C\S(C)(=O)=O)NC(=O)C1(F)CCN(S(=O)(=O)c2ncc(Br)cc2-c2ccccc2Cl)CC1 [Compound 218, (R,Z)-1-((5-bromo-3-(2-chlorophenyl)pyridin-2-yl)sulfonyl)-4-fluoro-N-(4-(methylsulfonyl)but-3-en-2-yl)piperidine-4-carboxamide]	560	440
COc1ccc(S(=O)(=O)N2CCC(F)(C(=O)N[C@@H](C)/C=C\S(C)(=O)=O)CC2)c(-c2ccccc2OC)c1 [Compound 219, (S,Z)-1-((2′,5-dimethoxy-[1,1′-biphenyl]-2-yl)sulfonyl)-4-fluoro-N-(4-(methylsulfonyl)but-3-en-2-yl)piperidine-4-carboxamide]	970	1090
C[C@@H](/C=C\S(C)(=O)=O)NC(=O)C1(F)CCN(S(=O)(=O)c2ccc(Cl)cc2-c2cccc(CCO)c2)CC1 [Compound 220, (S,Z)-1-((5-chloro-3′-(2-hydroxyethyl)-[1,1′-biphenyl]-2-yl)sulfonyl)-4-fluoro-N-(4-(methylsulfonyl)but-3-en-2-yl)piperidine-4-carboxamide]	920	1530
COc1ccc(S(=O)(=O)N2CCC(F)(C(=O)N[C@H](C)/C=C/C#N)CC2)c(-c2ccccc2Cl)c1 [Compound 229, (R,E)-1-((2′-chloro-5-methoxy-[1,1′-biphenyl]-2-yl)sulfonyl)-N-(4-cyanobut-3-en-2-yl)-4-fluoropiperidine-4-carboxamide]	1100	970
C[C@H](/C=C\S(C)(=O)=O)NC(=O)C1(F)CCN(S(=O)(=O)c2cnc(Cl)cc2-c2ccccc2Cl)CC1 [Compound 231, (R,Z)-1-((6-chloro-4-(2-chlorophenyl)pyridin-3-yl)sulfonyl)-4-fluoro-N-(4-(methylsulfonyl)but-3-en-2-yl)piperidine-4-carboxamide]	130	114
C[C@@H](/C=C\S(C)(=O)=O)NC(=O)C1(F)CCN(S(=O)(=O)c2ccc(Cl)cc2-c2cccc(OCc3cccnc3)c2)CC1 [Compound 260, (S,Z)-1-((5-chloro-3′-(pyridin-3-ylmethoxy)-[1,1′-biphenyl]-2-yl)sulfonyl)-4-fluoro-N-(4-(methylsulfonyl)but-3-en-2-yl)piperidine-4-carboxamide]	150	210
COc1cccc(COc2cccc(-c3cc(Cl)ccc3S(=O)(=O)N3CCC(F)(C(=O)N[C@@H](C)/C=C\S(C)(=O)=O)CC3)c2)c1 [Compound 261, (S,Z)-1-((5-chloro-3′-((3-methoxybenzyl)oxy)-[1,1′-biphenyl]-2-yl)sulfonyl)-4-fluoro-N-(4-(methylsulfonyl)but-3-en-2-yl)piperidine-4-carboxamide]	480	730
CCCCCOc1cccc(-c2cc(Cl)ccc2S(=O)(=O)N2CCC(F)(C(=O)N[C@@H](C)/C=C\S(C)(=O)=O)CC2)c1 [Compound 262, (S,Z)-1-((5-chloro-3′-(pentyloxy)-[1,1′-biphenyl]-2-yl)sulfonyl)-4-fluoro-N-(4-(methylsulfonyl)but-3-en-2-yl)piperidine-4-carboxamide]	780	430
C[C@@H](/C=C\S(C)(=O)=O)NC(=O)C1(F)CCN(S(=O)(=O)c2ccc(Cl)cc2-c2cccc(OC3CCC3)c2)CC1 [Compound 263, (S,Z)-1-((5-chloro-3′-cyclobutoxy-[1,1′-biphenyl]-2-yl)sulfonyl)-4-fluoro-N-(4-(methylsulfonyl)but-3-en-2-yl)piperidine-4-carboxamide]	1000	930
CC#CCOc1cccc(-c2cc(Cl)ccc2S(=O)(=O)N2CCC(F)(C(=O)N[C@@H](C)/C=C\S(C)(=O)=O)CC2)c1 [Compound 264, (S,Z)-1-((3′-(but-2-yn-1-yloxy)-5-chloro-[1,1′-biphenyl]-2-yl)sulfonyl)-4-fluoro-N-(4-(methylsulfonyl)but-3-en-2-yl)piperidine-4-carboxamide]	480	510
C[C@@H](/C=C\S(C)(=O)=O)NC(=O)C1(F)CCN(S(=O)(=O)c2ccc(Cl)cc2-c2cccc(OCc3ccccc3Cl)c2)CC1 [Compound 265, (S,Z)-1-((5-chloro-3′-((2-chlorobenzyl)oxy)-[1,1′-biphenyl]-2-yl)sulfonyl)-4-fluoro-N-(4-(methylsulfonyl)but-3-en-2-yl)piperidine-4-carboxamide]	330	390
